Experimental data from US7879876B2, “Sulfonamide derivatives and use thereof for the modulation of metalloproteinases” (Merck Serono SA, priority 2005, dated 2011).

How the values were obtained:
Format in all cases: biochemical
gelatinase A (MMP-2) = biological target: T1, gelatinase A (MMP-2) (Homo sapiens, UniProt P08253); test: MMP-2 enzyme inhibition assay (coumarin-labelled peptide substrate); conditions: read-out: IC50 MMP2
T1 sequence (P08253 110-660): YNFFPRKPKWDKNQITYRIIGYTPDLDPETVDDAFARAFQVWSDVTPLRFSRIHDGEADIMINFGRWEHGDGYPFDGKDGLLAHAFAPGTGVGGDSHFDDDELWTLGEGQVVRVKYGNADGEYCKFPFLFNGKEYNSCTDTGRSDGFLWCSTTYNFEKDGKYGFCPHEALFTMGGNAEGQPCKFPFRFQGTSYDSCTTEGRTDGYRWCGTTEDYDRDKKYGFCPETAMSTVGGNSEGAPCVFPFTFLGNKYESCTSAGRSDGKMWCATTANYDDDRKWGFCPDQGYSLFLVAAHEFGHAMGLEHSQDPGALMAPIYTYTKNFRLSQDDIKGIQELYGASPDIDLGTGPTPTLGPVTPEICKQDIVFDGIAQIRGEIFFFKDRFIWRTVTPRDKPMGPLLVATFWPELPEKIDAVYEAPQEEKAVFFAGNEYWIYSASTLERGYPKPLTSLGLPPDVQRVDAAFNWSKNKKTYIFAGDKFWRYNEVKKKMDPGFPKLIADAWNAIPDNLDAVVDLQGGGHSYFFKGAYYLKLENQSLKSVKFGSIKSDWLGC
How it was run: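 Recombinant human MMP-2, APMA-activated if necessary, run as for the MMP-9 protocol: McaPLGLDpaAR substrate (8 μM working dilution) in 100 mM Tris-HCl pH 7.6, 100 mM NaCl, 10 mM CaCl2, 0.05% Brij 35; ten 3-fold concentrations (100 μM–5.1 nM) in duplicate, 2 h at 37° C. Fluorescence ex 320/em 405 nm, unstopped; IC50 from four-parameter fit.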

metalloelastase (MMP-12) = metalloelastase (MMP-12) (Homo sapiens, UniProt P39900); test: MMP-12 enzyme inhibition assay (coumarin-labelled peptide substrate); conditions: read-out: IC50 MMP12
How it was run: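 Recombinant human MMP-12 assayed per the MMP-9 protocol: Tris-HCl pH 7.6 buffer with NaCl, CaCl2, Brij 35; McaPLGLDpaAR substrate, compounds 100 μM–5.1 nM in duplicate, 2 h at 37° C. Fluorescence read at 405 nm (320 nm excitation) without stopping; IC50 from four-parameter fit.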

MMP-14 = MMP-14 (Homo sapiens, UniProt P50281); test: MMP-14 enzyme inhibition assay (coumarin-labelled peptide substrate); conditions: read-out: percentage inhibition MMP14
How it was run: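 Recombinant human enzyme, APMA-activated if necessary, was incubated with McaPLGLDpaAR substrate and compound (10 concentrations in duplicate, 100 μM to 5.1 nM) in Tris-HCl pH 7.6 with NaCl, CaCl2 and Brij 35 for 2 h at 37 °C. Fluorescence was read at 320/405 nm, and IC50 was taken from a four-parameter fit.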

Chain of metalloelastase (MMP-12) (P39900 106-470): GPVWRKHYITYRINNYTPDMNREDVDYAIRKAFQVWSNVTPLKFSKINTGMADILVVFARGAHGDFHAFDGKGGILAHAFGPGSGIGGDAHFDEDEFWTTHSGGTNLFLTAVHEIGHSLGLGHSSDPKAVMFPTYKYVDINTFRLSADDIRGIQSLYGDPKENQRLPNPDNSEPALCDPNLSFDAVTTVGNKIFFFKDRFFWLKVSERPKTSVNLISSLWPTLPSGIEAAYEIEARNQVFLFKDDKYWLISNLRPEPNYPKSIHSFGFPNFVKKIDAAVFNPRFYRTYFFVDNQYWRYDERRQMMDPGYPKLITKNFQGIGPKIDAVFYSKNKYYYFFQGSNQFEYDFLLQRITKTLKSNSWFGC

SMILES | IC50 (gelatinase A (MMP-2)) | IC50 (metalloelastase (MMP-12)) | inhibition at 0.1 µM (MMP-14) | inhibition at 5 µM (MMP-14)
O=CN(O)C(CS(=O)(=O)N1CCc2cc(C(F)(F)F)ccc2C1)[C@H]1CCCO1 (stereo partly drawn) [Example 47, N-hydroxy-N-(1-[(2R)-tetrahydrofuran-2-yl]-2-{[6-(tri-fluoromethyl)-3,4-dihydroisoquinolin-2(1H)-yl]sulfonyl}ethyl)formamide] | 33 nM | 2.5 nM | 7% | 79%
O=CN(O)C(CCO)CS(=O)(=O)N1CCc2ccc(Cl)cc2C1 (centres unmarked) [Example 48, N-(1-{[(7-chloro-3,4-dihydroisoquinolin-2(1H)-yl)sulfonyl]-methyl}-3-hydroxypropyl)-N-hydroxyformamide] | 77 nM | 46 nM | – | 41%
O=CN(O)C(CO)CS(=O)(=O)N1CCc2cc(Cl)c(Cl)cc2C1 (centres unmarked) [Example 49, N-[2-[(6,7-dichloro-3,4-dihydroisoquinolin-2(1H)-yl)-sulfonyl]-1-(hydroxymethyl)ethyl]-N-hydroxyformamide] | 11 nM | 5.5 nM | 14% | 86%
CC(C)C(CS(=O)(=O)N1CCc2ccc(-c3ccc(F)cc3)cc2C1)N(O)C=O (centres unmarked) [Example 50, N-[1-({[7-(4-fluorophenyl)-3,4-dihydroisoquinolin-2(1H)-yl]sulfonyl}methyl)-2-methylpropyl]-N-hydroxyformamide] | 90 nM | 3.5 nM | 13% | 83%
O=CN(O)C(CS(=O)(=O)N1CCc2ccc(F)cc2C1)c1ccoc1 (centres unmarked) [Example 52, N-[2-[(7-fluoro-3,4-dihydroisoquinolin-2(1H)-yl)sulfonyl]-1-(3-furyl)ethyl]-N-hydroxyformamide] | 298 nM | 46 nM | – | 49%
O=CN(O)C(CS(=O)(=O)N1CCc2ccc(F)cc2C1)C1CCN(Cc2ccccc2)CC1 (centres unmarked) [Example 53, N-{1-(1-benzylpiperidin-4-yl)-2-[(7-fluoro-3,4-dihydro-isoquinolin-2(1H)-yl)sulfonyl]ethyl}-N-hydroxyformamide] | 298 nM | 106 nM | – | 34%

Next, values leading:

IC50 (gelatinase A (MMP-2)) | IC50 (metalloelastase (MMP-12)) | inhibition at 0.1 µM (MMP-14) | inhibition at 5 µM (MMP-14) | SMILES
24 nM | 6 nM | 19% | 86% | CC(C)CC(CS(=O)(=O)N1CCc2ccc(Br)cc2C1)N(O)C=O (centres unmarked) [Example 55, N-(1-{[(7-bromo-3,4-dihydroisoquinolin-2(1H)-yl)-sulfonyl]methyl}-3-methylbutyl)-N-hydroxyformamide]
190 nM | 51 nM | – | 48% | CC(C)(CS(=O)(=O)N1CCc2ccc(Br)cc2C1)N(O)C=O [Example 56, N-{2-[(7-bromo-3,4-dihydroisoquinolin-2(1H)-yl)sulfonyl]-1,1-dimethylethyl}-N-hydroxyformamide]
> 5000 nM | 117 nM | – | 0% | CC(C)(C)c1ccc2c(c1)CN(S(=O)(=O)CC(COCc1ccccc1)N(O)C=O)CC2 (centres unmarked) [Example 57, N-(2-(benzyloxy)-1-{[(7-tert-butyl-3,4-dihydroisoquinolin-2(1H)-yl)sulfonyl]methyl}ethyl)-N-hydroxyformamide]
20 nM | 4.5 nM | 11% | 79% | O=CN(O)C(COCc1ccccc1)CS(=O)(=O)N1CCc2ccc(Cl)cc2C1 (centres unmarked) [Example 58, N-(2-(benzyloxy)-1-{[(7-chloro-3,4-dihydroisoquinolin-2(1H)-yl)sulfonyl]methyl}ethyl)-N-hydroxyformamide]
83 nM | 7.5 nM | – | 43% | O=CN(O)C(COCc1ccccc1)CS(=O)(=O)N1CCc2ccc(C(F)(F)F)cc2C1 (centres unmarked) [Example 59, N-[2-(benzyloxy)-1-({[7-(trifluoromethyl)-3,4-dihydro-isoquinolin-2(1H)-yl]sulfonyl}methyl)ethyl]-N-hydroxyformamide]
